The source made the active and inactive calls. The rule behind the calls is not given here.
Legend:
Bacillus subtilis = assay: Antibacterial activity against Bacillus subtilis assessed as inhibition of visible growth incubated for 16 to 18 hrs by CLSI method; assay type: functional; settings: time 16-18 hrs, read-out: MIC100
Salmonella enterica = assay: Antibacterial activity against Salmonella enterica 8389 assessed as inhibition of visible growth incubated for 16 to 18 hrs by CLSI method; assay type: functional; settings: time 16-18 hrs, read-out: MIC100
[1] = Hemolytic activity in sheep RBC assessed as hemolysis incubated for 1 hr; assay type: ADME, cell-based, Ovis aries, Erythrocyte; settings: sheep red blood cells (erythrocytes)
Staphylococcus aureus [2] = assay: Antibacterial activity against methicillin-resistant Staphylococcus aureus clinical isolate M-16 assessed as inhibition of visible growth incubated for 16 to 18 hrs by CLSI method; assay type: functional; settings: time 16-18 hrs, read-out: MIC100
Staphylococcus aureus [3] = assay: Antibacterial activity against methicillin-resistant Staphylococcus aureus clinical isolate M-19 assessed as inhibition of visible growth incubated for 16 to 18 hrs by CLSI method; assay type: functional; settings: time 16-18 hrs, read-out: MIC100
Staphylococcus aureus [4] = assay: Antibiofilm activity against Staphylococcus aureus assessed as destruction of biofilm at 64 ug/ml incubated for 16 to 18 hrs by crystal violet based biofilm disruption assay relative to control; assay type: functional; settings: dose 64 µg/ml; time 16-18 hrs
Cell membrane [5] = assay: Induction of membrane disruption in methicillin-resistant Staphylococcus aureus clinical isolate 16 at 4 to 32 ug/ml measured for 16 mins by DiSC35 dye based fluorescence assay; assay type: subcellular; settings: dose 4-32 µg/ml
Cell membrane [6] = assay: Induction of membrane disruption in methicillin-resistant Staphylococcus aureus clinical isolate 16 assessed as increase in red fluorescence at 10 ug/ml by PI staining based confocal laser scanning microscopy; settings: dose 10.0 µg/ml
Cell membrane [7] = assay: Induction of membrane morphological changes in methicillin-resistant Staphylococcus aureus clinical isolate 16 assessed as intact and smooth surface at 10 ug/ml by scanning electron microscopy; assay type: subcellular; settings: dose 10.0 µg/ml
[8] = Toxicity in BALB/c mouse assessed as abnormalities and pathological changes in kidney at 25 mg/kg, sc once a day for 3 days by H and E staining based assay; assay type: organism-based; settings: in vivo, 72 h, time 3 day
Staphylococcus aureus [9] = assay: Antibacterial activity against methicillin-resistant Staphylococcus aureus clinical isolate 16 infected in BALB/c mouse assessed as reduction in bacterial load in spleen at 25 mg/kg, sc once a day for 3 days by H and E staining based assay; assay type: functional, organism-based; settings: time 3.0 day

## C=CCc1ccc(OCCC[N+](C)(C)CC(=O)NCCCC)c(-c2ccc(OCCC[N+](C)(C)CC(=O)NCCCC)c(CC=C)c2)c1.[Br-].[Br-]
Bacillus subtilis
  MIC: 1 µg/mL
Salmonella enterica
  MIC: 4 µg/mL
[1]
  HC50 at 1 h: 789 µg/mL
Staphylococcus aureus [2]
  MIC: 1 µg/mL
Staphylococcus aureus [3]
  MIC: 3 µg/mL
Staphylococcus aureus [4]
  Activity: 20%
Cell membrane [5]
  Activity: Active
Cell membrane [6]
  Activity: Active
Cell membrane [7]
  Activity: Active
[8]
  Activity: Non-Toxic
Staphylococcus aureus [9]
  Activity: Active

From ChEMBL document CHEMBL4831516, “Development of Membrane-Active Honokiol/Magnolol Amphiphiles as Potent Antibacterial Agents against Methicillin-Resistant Staphylococcus aureus (MRSA)” (J Med Chem, 2021)
